Source: US11178871B2, “Herbicidal pyrimidine compounds” (BASF SE, priority 2016, dated 2021)

What was measured:
Format in all cases: in vivo
Echinocloa crus-galli [1] = assay: greenhouse test, pre-emergence treatment, ECHCG
Source text: (§1) The culture containers used were plastic flowerpots containing loamy sand with approximately 3.0% of humus as the substrate. The seeds of the test plants were sown separately for each species.
(§2) For the pre-emergence treatment, the active ingredients, which had been suspended or emulsified in water, were applied directly after sowing by means of finely distributing nozzles. The containers were irrigated gently to promote germination and growth and subsequently covered with transparent plastic hoods until the plants had rooted. This cover caused uniform germination of the test plants, unless this had been impaired by the active ingredients.
(§3) Depending on the species, the plants were kept at 10-25° C. or 20-35° C., respectively.
(§4) The test period extended over 2 to 4 weeks. During this time, the plants were tended, and their response to the individual treatments was evaluated.
(§5) Evaluation was carried out using a scale from 0 to 100. 100 means no emergence of the plants, or complete destruction of at least the aerial moieties, and 0 means no damage, or normal course of growth. A good herbicidal activity is given at values of at least 70 and a very good herbicidal activity is given at values of at least 85.
(§6) The plants used in the greenhouse experiments were of the following species: […]

Alopecurus myosuroides = assay: greenhouse test, post-emergence treatment, ALOMY; settings: post-emergence
Source text: as §1
(§7) For the post-emergence treatment, the test plants were first grown to a height of 3 to 15 cm, depending on the plant habit, and only then treated with the active ingredients which had been suspended or emulsified in water. For this purpose, the test plants were either sown directly and grown in the same containers, or they were first grown separately as seedlings and transplanted into the test containers a few days prior to treatment.
as §3, §4, §5, §6

Echinocloa crus-galli [2] = assay: greenhouse test, post-emergence treatment, ECHCG; settings: post-emergence
Source text: as §1, §7, §3, §4, §5, §6

Apera spica-venti = assay: greenhouse test, pre-emergence treatment, APESV
Source text: as §1, §2, §3, §4, §5, §6

Avena fatua = assay: greenhouse test, post-emergence treatment, AVEFA
Source text: as §1, §7, §3, §4, §5, §6

With `Brc1ccccc1-c1cnc(C2CC2)nc1-c1ccco1` [Ex. 34] the herbicidal activity (Echinocloa crus-galli [1]; 2000 g/ha) was “good (A good herbicidal activity is given at values of at least 70)”, the herbicidal activity (Alopecurus myosuroides; 2000 g/ha) was “good (A good herbicidal activity is given at values of at least 70)” and the herbicidal activity (Echinocloa crus-galli [2]; 2000 g/ha) was “very good (a very good herbicidal activity is given at values of at least 85)”. For the same compound, the herbicidal activity (Apera spica-venti; 2000 g/ha) was “very good (a very good herbicidal activity is given at values of at least 85)”.

`OC(Cc1nc(C2CC2)ncc1-c1ccccc1Cl)c1ccccc1` (stereo not shown) [Ex. 66] was tested, and the herbicidal activity (Echinocloa crus-galli [2]; 2000 g/ha) was “very good (a very good herbicidal activity is given at values of at least 85)”.

With `Cc1nc(-c2nc(C3CC3)ncc2-c2ccccc2Br)co1` [Ex. 288] the herbicidal activity (Alopecurus myosuroides; 2000 g/ha) was “very good (a very good herbicidal activity is given at values of at least 85)”.

With `OC1(Cc2nc(C3CC3)ncc2-c2ccccc2Br)COC1` [Ex. 155] the herbicidal activity (Alopecurus myosuroides; 2000 g/ha) was “very good (a very good herbicidal activity is given at values of at least 85)” and the herbicidal activity (Echinocloa crus-galli [2]; 2000 g/ha) was “very good (a very good herbicidal activity is given at values of at least 85)”.

`OC1(c2nc(C3CC3)ncc2-c2ccccc2Cl)CCC1` [Ex. 143] was tested, and the herbicidal activity (Echinocloa crus-galli [2]; 2000 g/ha) was “very good (a very good herbicidal activity is given at values of at least 85)”.

With `Cc1ncoc1-c1nc(C2CC2)ncc1-c1ccc(C(F)(F)F)cc1Cl` [Ex. 264] the herbicidal activity (Alopecurus myosuroides; 500 g/ha) was “very good (a very good herbicidal activity is given at values of at least 85)” and the herbicidal activity (Avena fatua; 500 g/ha) was “very good (a very good herbicidal activity is given at values of at least 85)”.

In the case of `Clc1ccccc1-c1cnc(C2CC2)nc1-c1cocn1` [Ex. 215], the herbicidal activity (Alopecurus myosuroides; 2000 g/ha) was “very good (a very good herbicidal activity is given at values of at least 85)” and the herbicidal activity (Apera spica-venti; 2000 g/ha) was “very good (a very good herbicidal activity is given at values of at least 85)”.

`CCc1ncc(-c2ccccc2Br)c(-c2ccoc2)n1` [Ex. 63] was tested, and the herbicidal activity (Echinocloa crus-galli [2]; 1000 g/ha) was “very good (a very good herbicidal activity is given at values of at least 85)”.

In the case of `Cc1ccoc1-c1nc(C2CC2)ncc1-c1ccccc1I` [Ex. 77], the herbicidal activity (Alopecurus myosuroides; 1000 g/ha) was “very good (a very good herbicidal activity is given at values of at least 85)” and the herbicidal activity (Avena fatua; 1000 g/ha) was “very good (a very good herbicidal activity is given at values of at least 85)”.

With `CC(=O)OC(c1nc(C2CC2)ncc1-c1ccccc1Cl)C(C)(C)OC(C)=O` (stereo not shown) [Ex. 274] the herbicidal activity (Echinocloa crus-galli [1]; 1000 g/ha) was “very good (a very good herbicidal activity is given at values of at least 85)”, the herbicidal activity (Alopecurus myosuroides; 1000 g/ha) was “very good (a very good herbicidal activity is given at values of at least 85)” and the herbicidal activity (Echinocloa crus-galli [2]; 1000 g/ha) was “very good (a very good herbicidal activity is given at values of at least 85)”. The herbicidal activity (Apera spica-venti; 1000 g/ha) was “very good (a very good herbicidal activity is given at values of at least 85)”.

With `O=C(O)C(O)Cc1nc(C2CC2)ncc1-c1ccccc1Cl` (stereo not shown) [Ex. 97] the herbicidal activity (Echinocloa crus-galli [2]; 2000 g/ha) was “very good (a very good herbicidal activity is given at values of at least 85)” and the herbicidal activity (Apera spica-venti; 2000 g/ha) was “very good (a very good herbicidal activity is given at values of at least 85)”.

For `OC1(Cc2nc(C3CC3)ncc2-c2ccccc2Cl)COC1` [Ex. 73], the herbicidal activity (Alopecurus myosuroides; 2000 g/ha) was “good (A good herbicidal activity is given at values of at least 70)”.

In the case of `Cc1ccc(-c2nc(C3CC3)ncc2-c2ccccc2Cl)o1` [Ex. 26], the herbicidal activity (Echinocloa crus-galli [1]; 2000 g/ha) was “very good (a very good herbicidal activity is given at values of at least 85)”, the herbicidal activity (Alopecurus myosuroides; 2000 g/ha) was “very good (a very good herbicidal activity is given at values of at least 85)” and the herbicidal activity (Echinocloa crus-galli [2]; 2000 g/ha) was “very good (a very good herbicidal activity is given at values of at least 85)”. For the same compound, the herbicidal activity (Apera spica-venti; 2000 g/ha) was “very good (a very good herbicidal activity is given at values of at least 85)”.

`OC(Cc1nc(C2CC2)ncc1-c1ccccc1Cl)c1nc(Cl)ccc1Cl` (stereo not shown) [Ex. 256] was tested, and the herbicidal activity (Echinocloa crus-galli [1]; 2000 g/ha) was “very good (a very good herbicidal activity is given at values of at least 85)”, the herbicidal activity (Echinocloa crus-galli [2]; 2000 g/ha) was “very good (a very good herbicidal activity is given at values of at least 85)” and the herbicidal activity (Apera spica-venti; 2000 g/ha) was “very good (a very good herbicidal activity is given at values of at least 85)”.

In the case of `CC(C)(O)c1nc(C2CC2)ncc1-c1ccc(F)cc1Cl` [Ex. 135], the herbicidal activity (Alopecurus myosuroides; 500 g/ha) was “good (A good herbicidal activity is given at values of at least 70)”.

For `OC(c1nc(C2CC2)ncc1-c1ccccc1Cl)C(O)c1c(Cl)ccc(Cl)c1Cl` (stereo not shown) [Ex. 240], the herbicidal activity (Echinocloa crus-galli [1]; 2000 g/ha) was “very good (a very good herbicidal activity is given at values of at least 85)” and the herbicidal activity (Apera spica-venti; 2000 g/ha) was “very good (a very good herbicidal activity is given at values of at least 85)”.

With `COc1cccc(-c2nc(C3CC3)ncc2-c2ccccc2Cl)c1` [Ex. 125] the herbicidal activity (Echinocloa crus-galli [2]; 500 g/ha) was “very good (a very good herbicidal activity is given at values of at least 85)”.

`Clc1ccccc1-c1cnc(C2CC2)nc1CCc1ccco1` [Ex. 102] was tested, and the herbicidal activity (Echinocloa crus-galli [2]; 2000 g/ha) was “very good (a very good herbicidal activity is given at values of at least 85)”.

For `CC(C)(C)/C=C/c1nc(C2CC2)ncc1-c1ccccc1Cl` [Ex. 95], the herbicidal activity (Alopecurus myosuroides; 2000 g/ha) was “very good (a very good herbicidal activity is given at values of at least 85)”, the herbicidal activity (Echinocloa crus-galli [2]; 2000 g/ha) was “very good (a very good herbicidal activity is given at values of at least 85)” and the herbicidal activity (Apera spica-venti; 2000 g/ha) was “very good (a very good herbicidal activity is given at values of at least 85)”.

With `Clc1ccccc1-c1cnc(C2CC2)nc1COCc1ccccc1` [Ex. 21] the herbicidal activity (Alopecurus myosuroides; 1000 g/ha) was “very good (a very good herbicidal activity is given at values of at least 85)” and the herbicidal activity (Apera spica-venti; 1000 g/ha) was “very good (a very good herbicidal activity is given at values of at least 85)”.

With `Cc1ccc(-c2nc(C3CC3)ncc2-c2cc(F)c(F)cc2Cl)o1` [Ex. 79] the herbicidal activity (Alopecurus myosuroides; 1000 g/ha) was “very good (a very good herbicidal activity is given at values of at least 85)” and the herbicidal activity (Avena fatua; 1000 g/ha) was “very good (a very good herbicidal activity is given at values of at least 85)”.

`Fc1cccc(Cl)c1-c1cnc(C2CC2)nc1-c1ccco1` [Ex. 60] was tested, and the herbicidal activity (Alopecurus myosuroides; 1000 g/ha) was “very good (a very good herbicidal activity is given at values of at least 85)” and the herbicidal activity (Avena fatua; 1000 g/ha) was “very good (a very good herbicidal activity is given at values of at least 85)”.

With `Cc1ccc(-c2nc(C3CC3)ncc2-c2cc(F)ccc2C)o1` [Ex. 110] the herbicidal activity (Echinocloa crus-galli [2]; 1000 g/ha) was “good (A good herbicidal activity is given at values of at least 70)”.

`Cc1ccc(-c2nc(C3CC3)ncc2-c2ccccc2C)o1` [Ex. 120] was tested, and the herbicidal activity (Alopecurus myosuroides; 1000 g/ha) was “good (A good herbicidal activity is given at values of at least 70)”.

In the case of `Clc1ccccc1-c1cnc(C2CC2)nc1CC1=CCOCC1` [Ex. 104], the herbicidal activity (Echinocloa crus-galli [1]; 2000 g/ha) was “good (A good herbicidal activity is given at values of at least 70)”, the herbicidal activity (Alopecurus myosuroides; 2000 g/ha) was “very good (a very good herbicidal activity is given at values of at least 85)” and the herbicidal activity (Echinocloa crus-galli [2]; 2000 g/ha) was “good (A good herbicidal activity is given at values of at least 70)”. For the same compound, the herbicidal activity (Apera spica-venti; 2000 g/ha) was “very good (a very good herbicidal activity is given at values of at least 85)”.

For `Clc1ccccc1-c1cnc(C2CC2)nc1/C=C/c1ccco1` [Ex. 94], the herbicidal activity (Alopecurus myosuroides; 2000 g/ha) was “very good (a very good herbicidal activity is given at values of at least 85)”, the herbicidal activity (Avena fatua; 2000 g/ha) was “very good (a very good herbicidal activity is given at values of at least 85)” and the herbicidal activity (Apera spica-venti; 2000 g/ha) was “very good (a very good herbicidal activity is given at values of at least 85)”.

`CC(O)c1nc(C2CC2)ncc1-c1ccc(F)cc1Cl` (stereo not shown) [Ex. 112] was tested, and the herbicidal activity (Echinocloa crus-galli [2]; 1000 g/ha) was “good (A good herbicidal activity is given at values of at least 70)”.

With `Fc1ccc(-c2cnc(C3CC3)nc2-c2cc3cc(Cl)ccc3o2)c(Cl)c1` [Ex. 44] the herbicidal activity (Echinocloa crus-galli [2]; 1000 g/ha) was “very good (a very good herbicidal activity is given at values of at least 85)” and the herbicidal activity (Avena fatua; 1000 g/ha) was “very good (a very good herbicidal activity is given at values of at least 85)”.

For `CCOP(=O)(OCC)C(OS(C)(=O)=O)c1nc(C2CC2)ncc1-c1ccccc1Cl` (stereo not shown) [Ex. 89], the herbicidal activity (Alopecurus myosuroides; 2000 g/ha) was “very good (a very good herbicidal activity is given at values of at least 85)”, the herbicidal activity (Avena fatua; 2000 g/ha) was “good (A good herbicidal activity is given at values of at least 70)” and the herbicidal activity (Apera spica-venti; 2000 g/ha) was “good (A good herbicidal activity is given at values of at least 70)”.

For `Cc1ccc(-c2nc(C3CC3)ncc2-c2ccc(F)cc2I)o1` [Ex. 81], the herbicidal activity (Alopecurus myosuroides; 1000 g/ha) was “very good (a very good herbicidal activity is given at values of at least 85)” and the herbicidal activity (Avena fatua; 1000 g/ha) was “very good (a very good herbicidal activity is given at values of at least 85)”.

For `FC(F)(F)c1ccc(-c2nc(C3CC3)ncc2-c2ccccc2Cl)s1` [Ex. 216], the herbicidal activity (Alopecurus myosuroides; 1000 g/ha) was “very good (a very good herbicidal activity is given at values of at least 85)”, the herbicidal activity (Echinocloa crus-galli [2]; 1000 g/ha) was “very good (a very good herbicidal activity is given at values of at least 85)” and the herbicidal activity (Apera spica-venti; 1000 g/ha) was “very good (a very good herbicidal activity is given at values of at least 85)”.

`N#Cc1csc(-c2nc(C3CC3)ncc2-c2ccccc2Cl)c1` [Ex. 126] was tested, and the herbicidal activity (Echinocloa crus-galli [2]; 2000 g/ha) was “very good (a very good herbicidal activity is given at values of at least 85)”.

`COC(=O)C(O)c1nc(C2CC2)ncc1-c1ccccc1Cl` (stereo not shown) [Ex. 220] was tested, and the herbicidal activity (Echinocloa crus-galli [1]; 1000 g/ha) was “good (A good herbicidal activity is given at values of at least 70)”.

`CC(C)=CC=Cc1nc(C2CC2)ncc1-c1ccccc1Cl` [Ex. 224] was tested, and the herbicidal activity (Echinocloa crus-galli [1]; 2000 g/ha) was “very good (a very good herbicidal activity is given at values of at least 85)”, the herbicidal activity (Alopecurus myosuroides; 2000 g/ha) was “very good (a very good herbicidal activity is given at values of at least 85)” and the herbicidal activity (Echinocloa crus-galli [2]; 2000 g/ha) was “very good (a very good herbicidal activity is given at values of at least 85)”. For the same compound, the herbicidal activity (Apera spica-venti; 2000 g/ha) was “very good (a very good herbicidal activity is given at values of at least 85)”.
